In patent publication US8022205B2, “Pyrimidine derivatives as PI3K inhibitor and use thereof” (Chugai Seiyaku Kabushiki Kaisha, priority 2006, dated 2011) one finds IC50 and inhibition data, which are given here for 16 compounds.

Assay [1] addresses human PI3K(p110α/p85α) (Homo sapiens, UniProt P42336). Description: Measurement of PI3K inhibitory activity (AlphaScreen GST Detection Kit). The class given is biochemical. The settings on record: 10 μM ATP, 4 μM PI(4,5)P2, read-out: Enzyme inhibitory activity (IC50, μM) PI3K α. How it is done:
The inhibitory activity of compounds of the present invention represented by formula (I) were measured with human PI3K(p110α/p85α) prepared in a baculovirus expression system using the AlphaScreen GST Detection Kit (Perkin Elmer, Inc.). A predetermined concentration of the compound dissolved in dimethylsulfoxide (DMSO) and PI3K were mixed in a 384-well assay plate and after allowing to stand for 20 minutes at room temperature, 4 μM PI(4,5)P2 (Echelon Corporation) and 10 μM ATP (5 mM Hepes, pH 7.5, 2.5 mM MgCl2) were added to initiate the reaction. After reacting for 15 minutes at 37° C., GST-GRP1 expressed and purified from Escherichia coli, Anti-GST Acceptor Beads (Perkin Elmer, Inc.), Streptavidin Donor Beads (Perkin Elmer, Inc.) and biotin-PI(3,4,5) P3 (Echelon Corporation) (10 mM Tris-HCl pH 7.4, 150 mM NaCl, 7.5 mM EDTA, 1 mM DTT, 0.1% Tween 20) were added, and after allowing to stand for 1 hour at room temperature, light at 520 to 620 nm emitted as a result of exciting with light at 680 nm was measured with the Envision measuring instrument (Perkin Elmer, Inc.).
Test Example 1 described above can be performed according to “Analytical Biochemistry, 2003, 313, 234-245; Alexander Gray et al”.
For orientation: In Alpha technology, singlet oxygen from a donor bead excites a nearby acceptor bead.

For assay [2], the system named is human colon cancer cell line HCT116. Description: Cell proliferation inhibitory activity (Cell Counting Kit-8), colon cancer HCT116. The settings on record: HCT-116, 96 h, HCT116, 4 days. It is filed as cell-based. As for the experimental part:
(§1) The cell proliferation inhibitory activity was measured for compounds of the present invention represented by formula (I). Cancer cell proliferation inhibitory activity was measured using the Cell Counting Kit-8 (Dojindo). 2000 cells each of human colon cancer cell line HCT116 purchased from the American Type Culture Collection (Virginia, USA) were seeded into each well of a 96-well culture plate followed by the addition of a predetermined concentration of the compounds and cultivating in a CO2environment for 4 days at 37° C. On the fourth day of cultivating, the Cell Counting Kit-8 solution was added and absorbance (measuring wavelength: 450 nm, reference wavelength: 615 nm) was measured in accordance with the protocol provided with the kit.
(Formazan colour is commonly taken as a measure of viable cells.)

For assay [3], the system named is human prostate cancer cell line PC3. Description: Cell proliferation inhibitory activity (Cell Counting Kit-8), prostate cancer PC3. The settings on record: 96 h, PC3, 4 days. It is filed as cell-based. How it is done: as §1
(§2) Cancer cell proliferation inhibitory activity was also measured for human lung cancer cell line NCI-H460 and human prostate cancer cell line PC3 purchased from the American Type Culture Collection. 1000 and 3000 cells of NCI-H460 and PC3, respectively, were seeded into each well of a 96-well culture plate followed by testing in the same manner as the human colon cancer cell line and calculating the percentage of cell proliferation inhibition at 2.5 μM.

Assay [4] has as its system human lung cancer cell line NCI-H460. The assay can be described thus: Cell proliferation inhibitory activity (Cell Counting Kit-8), lung cancer NCI-H460. It is filed as cell-based. The settings on record: 96 h, NCI-H460, 4 days, read-out: Cell proliferation inhibitory activity (% Inhibition at 2.5 μM) Non-small cell lung cancer (NCI-H460). As for the experimental part:
as §1, §2

Sequence of human PI3K(p110α/p85α) (P42336 whole entry): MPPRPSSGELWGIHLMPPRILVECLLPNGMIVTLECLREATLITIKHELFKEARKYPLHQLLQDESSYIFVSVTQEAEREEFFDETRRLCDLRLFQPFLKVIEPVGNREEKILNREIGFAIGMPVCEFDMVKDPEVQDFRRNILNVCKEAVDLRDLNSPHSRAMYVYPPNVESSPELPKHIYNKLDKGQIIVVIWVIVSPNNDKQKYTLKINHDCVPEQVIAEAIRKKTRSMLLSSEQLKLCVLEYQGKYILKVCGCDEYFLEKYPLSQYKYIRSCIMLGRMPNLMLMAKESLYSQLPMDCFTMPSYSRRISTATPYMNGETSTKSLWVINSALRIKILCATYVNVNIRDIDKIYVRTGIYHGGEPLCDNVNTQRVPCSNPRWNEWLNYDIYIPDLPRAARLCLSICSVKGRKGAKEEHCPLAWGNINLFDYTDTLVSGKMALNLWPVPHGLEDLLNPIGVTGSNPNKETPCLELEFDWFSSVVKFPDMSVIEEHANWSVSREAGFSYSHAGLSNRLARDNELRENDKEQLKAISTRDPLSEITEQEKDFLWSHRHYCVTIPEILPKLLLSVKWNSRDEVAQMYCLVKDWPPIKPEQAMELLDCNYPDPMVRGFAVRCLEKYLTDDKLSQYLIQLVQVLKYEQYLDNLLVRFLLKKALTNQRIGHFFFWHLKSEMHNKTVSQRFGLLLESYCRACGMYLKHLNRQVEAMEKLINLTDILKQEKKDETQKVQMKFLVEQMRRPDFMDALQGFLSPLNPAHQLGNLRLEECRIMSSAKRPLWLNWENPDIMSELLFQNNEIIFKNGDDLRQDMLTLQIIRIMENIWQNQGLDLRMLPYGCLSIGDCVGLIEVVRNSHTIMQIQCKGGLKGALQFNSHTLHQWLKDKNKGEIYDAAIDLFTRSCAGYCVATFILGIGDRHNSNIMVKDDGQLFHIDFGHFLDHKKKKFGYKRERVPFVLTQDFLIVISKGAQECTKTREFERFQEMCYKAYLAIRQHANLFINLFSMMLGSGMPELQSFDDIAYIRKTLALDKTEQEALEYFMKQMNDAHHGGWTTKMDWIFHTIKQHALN
Sequence of human PI3K(p110α/p85α) (P27986 whole entry partner): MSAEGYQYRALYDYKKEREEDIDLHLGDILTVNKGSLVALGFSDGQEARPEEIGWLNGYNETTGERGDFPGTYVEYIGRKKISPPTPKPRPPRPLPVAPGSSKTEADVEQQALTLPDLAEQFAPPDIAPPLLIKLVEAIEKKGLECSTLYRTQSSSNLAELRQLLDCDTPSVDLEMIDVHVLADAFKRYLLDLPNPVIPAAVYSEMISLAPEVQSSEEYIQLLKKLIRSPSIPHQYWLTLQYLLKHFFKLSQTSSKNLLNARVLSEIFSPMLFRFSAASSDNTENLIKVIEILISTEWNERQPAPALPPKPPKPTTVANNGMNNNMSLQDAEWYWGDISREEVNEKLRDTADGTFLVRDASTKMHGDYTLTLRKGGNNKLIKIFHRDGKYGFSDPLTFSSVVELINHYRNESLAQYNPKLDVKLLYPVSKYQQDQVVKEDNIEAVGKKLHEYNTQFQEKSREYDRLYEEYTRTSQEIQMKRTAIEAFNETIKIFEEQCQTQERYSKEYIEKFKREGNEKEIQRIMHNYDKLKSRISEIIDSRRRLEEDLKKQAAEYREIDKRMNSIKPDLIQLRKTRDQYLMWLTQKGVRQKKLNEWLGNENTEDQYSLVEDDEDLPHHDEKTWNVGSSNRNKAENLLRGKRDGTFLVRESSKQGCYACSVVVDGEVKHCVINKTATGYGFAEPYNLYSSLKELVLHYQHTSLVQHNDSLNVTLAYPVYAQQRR

As for `CCN1CCN(C(=O)c2ccc(C)c(NC(=S)N3CCc4c(-c5cnc(N)nc5)nc(N5CCOCC5)nc43)c2)CC1` [Example D-17, 4-(2-Amino-pyrimidin-5-yl)-2-morpholin-4-yl-5,6-dihydro-pyrrolo[2,3-d]pyrimidine-7-carbothioic acid [5-(4-ethyl-piperazine-1-carbonyl)-2-methyl-phenyl]-amide], the IC50 (commonly the concentration that inhibits the measured activity by half) in assay [1] was 0.024 µM. Moreover, the inhibition at 2.5 µM in assay [2] was 96%; in assay [3], 93%; in assay [4] it was 97%.

For `CCN1CCN(c2cc(F)c(NC(=O)N3CCc4c(-c5cnc(N)nc5)nc(N5CCOCC5)nc43)c(F)c2)CC1` [Example D-18, 4-(2-Amino-pyrimidin-5-yl)-2-morpholin-4-yl-5,6-dihydro-pyrrolo[2,3-d]pyrimidine-7-carboxylic acid [4-(4-ethyl-piperazin-1-yl)-2,6-difluoro-phenyl]-amide], the IC50 in assay [1] stood at 0.022 µM. Further, the inhibition at 2.5 µM in assay [2] amounted to 100%; in assay [3], 93%; in assay [4], 102%.

As to `Nc1ncc(-c2nc(N3CCOCC3)nc3c2CCN3c2ccc(C(=O)NCc3cccnc3)cc2)cn1` [Example D-19, 4-[4-(2-Amino-pyrimidin-5-yl)-2-morpholin-4-yl-5,6-dihydro-pyrrolo[2,3-d]pyrimidin-7-yl]-N-pyridin-3-ylmethyl-benzamide], the IC50 in assay [1] came to 0.06 µM. In addition, the inhibition at 2.5 µM was 73% in assay [2], 102% in assay [3] and 97% in assay [4].

Take `Nc1ncc(-c2nc(N3CCOCC3)nc3c2CCN3c2ccc(C(=O)N3CCN(c4cccnc4)CC3)cc2)cn1` [Example D-20, {4-[4-(2-Amino-pyrimidin-5-yl)-2-morpholin-4-yl-5,6-dihydro-pyrrolo[2,3-d]pyrimidin-7-yl]-phenyl}-(4-pyridin-3-yl-piperazin-1-yl)-methanone]: the IC50 in assay [1] was determined as 0.046 µM. Besides, the inhibition at 2.5 µM in assay [2] was 83%; in assay [3], 99%; in assay [4] it was 99%.

As for `Nc1ncc(-c2nc(N3CCOCC3)nc3c2CCN3c2ccc(C(=O)N3CCN(c4cccnc4)CC3)cc2F)cn1` [Example D-21, {4-[4-(2-Amino-pyrimidin-5-yl)-2-morpholin-4-yl-5,6-dihydro-pyrrolo[2,3-d]pyrimidin-7-yl]-3-fluoro-phenyl}-(4-pyridin-3-yl-piperazin-1-yl)-methanone], the IC50 in assay [1] turned out to be 0.01 µM. For the same compound, the figures for the inhibition at 2.5 µM in assay [2], in assay [3] and in assay [4] were 77%, 100% and 79%, respectively.

With `Nc1ncc(-c2nc(N3CCOCC3)nc3c2CCN3c2ccc(C(=O)N3CCOCC3)cc2F)cn1` [Example D-22, {4-[4-(2-Amino-pyrimidin-5-yl)-2-morpholin-4-yl-5,6-dihydro-pyrrolo[2,3-d]pyrimidin-7-yl]-3-fluoro-phenyl}-morpholin-4-yl-methanone], in assay [1], the IC50 was 0.042 µM. Moreover, the inhibition at 2.5 µM turned out to be 82% in assay [2], 79% in assay [3] and 83% in assay [4].

Turning to `CN1CCN(c2cc(F)c(NC(=O)N3CCc4c(-c5cnc(N)nc5)nc(N5CCOCC5)nc43)c(F)c2)CC1` [Example D-23, 4-(2-Amino-pyrimidin-5-yl)-2-morpholin-4-yl-5,6-dihydro-pyrrolo[2,3-d]pyrimidine-7-carboxylic acid [4-(4-methyl-piperazin-1-yl)-2,6-difluoro-phenyl]-amide], the IC50 in assay [1] was found to be 0.006 µM. In addition, the inhibition at 2.5 µM in assay [2] amounted to 99%; in assay [3], 89%; in assay [4], 100%.

As for `CCN1CCN(C(=O)c2cc(F)c(NC(=O)N3CCc4c(-c5cnc(N)nc5)nc(N5CCOCC5)nc43)c(F)c2)CC1` [Example D-24, 4-(2-Amino-pyrimidin-5-yl)-2-morpholin-4-yl-5,6-dihydro-pyrrolo[2,3-d]pyrimidine-7-carboxylic acid [4-(4-ethyl-piperazine-1-carbonyl)-2,6-difluoro-phenyl]-amide], the IC50 in assay [1] was found to be 0.034 µM. Besides, the inhibition at 2.5 µM came to 88% in assay [2], 91% in assay [3] and 94% in assay [4].

Turning to `Cc1ccc(C(=O)N2CCOCC2)cc1N1CCc2c(-c3cnc(N)nc3)nc(N3CCOCC3)nc21` [Example D-25, {3-[4-(2-Amino-pyrimidin-5-yl)-2-morpholin-4-yl-5,6-dihydro-pyrrolo[2,3-d]pyrimidin-7-yl]-4-methyl-phenyl}-morpholin-4-yl-methanone], in assay [1], the IC50 was determined as 0.22 µM. In addition, the inhibition at 2.5 µM was found to be 61% in assay [2], 55% in assay [3] and 57% in assay [4].

As to `CN1CCN(Cc2ccc(N3CCc4c(-c5cnc(N)nc5)nc(N5CCOCC5)nc43)cc2)CC1` [Example D-26, 5-{7-[4-(4-methyl-piperazin-1-ylmethyl)-phenyl]-2-morpholin-4-yl-6,7-dihydro-5H-pyrrolo[2,3-d]pyrimidin-4-yl}-pyrimidin-2-ylamine], in assay [1], the IC50 is 0.048 µM. Moreover, the inhibition at 2.5 µM in assay [2] was determined as 87%; in assay [3], 82%; in assay [4], 84%.

For the compound `CN1CCN(C(=O)c2ccc(N3CCc4c(-c5cnc(N)nc5)nc(N5CCOCC5)nc43)cc2)CC1` [Example D-42, {4-[4-(2-Amino-pyrimidin-5-yl)-2-morpholin-4-yl-5,6-dihydro-pyrrolo[2,3-d]pyrimidin-7-yl]-phenyl}-(4-methyl-piperazin-1-yl)-methanone], the IC50 in assay [1] was found to be 0.014 µM. Besides, the results for the inhibition at 2.5 µM in assay [2], in assay [3] and in assay [4] were 91%, 88% and 94%, respectively.

Turning to `CCN1CCN(C(=O)c2ccc(N3CCc4c(-c5cnc(N)nc5)nc(N5CCOCC5)nc43)cn2)CC1` [Example D-95, {5-[4-(2-Amino-pyrimidin-5-yl)-2-morpholin-4-yl-5,6-dihydro-pyrrolo[2,3-d]pyrimidin-7-yl]-pyridin-2-yl}-(4-ethyl-piperazin-1-yl)-methanone], in assay [1], the IC50 amounted to 0.007 µM. Also, the values for the inhibition at 2.5 µM in assay [2], in assay [3] and in assay [4] were 93%, 91% and 83%, respectively.

In the case of `CCN1CCN(C(=O)c2cccc(NC(=O)N3CCc4c(-c5cnc(N)nc5)nc(N5CCOCC5)nc43)c2)CC1` [Example D-101, 4-(2-Amino-pyrimidin-5-yl)-2-morpholin-4-yl-5,6-dihydro-pyrrolo[2,3-d]pyrimidine-7-carboxylic acid [3-(4-ethyl-piperazine-1-carbonyl)-phenyl]-amide], the IC50 in assay [1] was found to be 0.009 µM. In addition, the inhibition at 2.5 µM was 92% in assay [2], 89% in assay [3] and 67% in assay [4].

Turning to `Nc1ncc(-c2nc(N3CCOCC3)nc3c2CCN3C(=O)Nc2cccc(C(=O)N3CCOCC3)c2)cn1` [Example D-102, 4-(2-Amino-pyrimidin-5-yl)-2-morpholin-4-yl-5,6-dihydro-pyrrolo[2,3-d]pyrimidine-7-carboxylic acid [3-(morpholine-4-carbonyl)-phenyl]-amide], in assay [1], the IC50 was 0.007 µM. The inhibition at 2.5 µM in assay [2] was found to be 72%; in assay [3], 70%; in assay [4], 94%.

On to `CCN1CCN(C(=O)c2ccc(NC(=O)N3CCc4c(-c5cnc(N)nc5)nc(N5CCOCC5)nc43)cc2)CC1` [Example D-103, 4-(2-Amino-pyrimidin-5-yl)-2-morpholin-4-yl-5,6-dihydro-pyrrolo[2,3-d]pyrimidine-7-carboxylic acid [4-(4-ethyl-piperazine-1-carbonyl)-phenyl]-amide], for which, in assay [1], the IC50 amounted to 0.006 µM. Also, the figures for the inhibition at 2.5 µM in assay [2], in assay [3] and in assay [4] were 74%, 80% and 92%, respectively.

As to `Nc1ncc(-c2nc(N3CCOCC3)nc3c2CCN3C(=O)Nc2ccc(C(=O)N3CCOCC3)cc2)cn1` [Example D-104, 4-(2-Amino-pyrimidin-5-yl)-2-morpholin-4-yl-5,6-dihydro-pyrrolo[2,3-d]pyrimidine-7-carboxylic acid [4-(morpholine-4-carbonyl)-phenyl]-amide], in assay [1], the IC50 was determined as 0.006 µM. Further, the results for the inhibition at 2.5 µM in assay [2], in assay [3] and in assay [4] were 37%, 34% and 67%, respectively.
